Assay results: ChEMBL document CHEMBL1687734, “Pharmacokinetics of EDP-420 after multiple oral doses in healthy adult volunteers and in a bioequivalence study” (Antimicrob Agents Chemother, 2009)

What was measured:
[1] = Ratio of drug concentration in Alveolar macrophage of healthy human at 400 mg, po administered as single dose after 24 hrs to drug concentration in Alveolar macrophage of healthy human at 500 mg, po administered as single dose after 24 hrs; format: ADME, organism-based; settings: in vivo
Homo sapiens [2] = experiment: Toxicity in high-fat fed healthy human assessed as changes in liver functions at 200 mg, po administered as single dose of two-100 mg capsules; format: organism-based; settings: in vivo
Homo sapiens [3] = experiment: Ratio of AUC (0 to infinity)in 8 hrs fasted healthy human plasma at 200 mg, po administered as single dose of two-100 mg capsules to AUC (0 to infinity) in 8 hrs fasted healthy human plasma assessed as EDP-420 9-keto level at 200 mg, po administered as single dose of two-100 mg capsules; format: ADME, organism-based; settings: in vivo
[4] = AUC (0 to last) in healthy human plasma at 200 mg, po once daily for 3 days measured after 1 day; format: ADME, organism-based; parameters: dose 200 mg, time 0 - last, route oral
[5] = AUC (0 to infinity) in 8 hrs fasted healthy human plasma at 200 mg, po administered as single dose of suspension; format: ADME, organism-based; parameters: dose 200 mg, route oral, time infinity
Homo sapiens [6] = experiment: Ratio of Cmax in 8 hrs fasted healthy human plasma at 200 mg, po administered as single dose of suspension to cmax in 8 hrs fasted healthy human plasma assessed as EDP-420 9-keto level at 200 mg, po administered as single dose of suspension; format: ADME, organism-based; settings: in vivo
Homo sapiens [7] = experiment: Ratio of AUC (0 to infinity) in 8 hrs fasted healthy human plasma at 200 mg, po administered as single dose of suspension to AUC (0 to infinity) in 8 hrs fasted healthy human plasma assessed as EDP-420 9-keto level at 200 mg, po administered as single dose of suspension; format: ADME, organism-based; settings: in vivo
[8] = Cmax in healthy human plasma at 200 mg, po once daily for 3 days measured after 3 days; format: ADME, organism-based; parameters: dose 200 mg, route oral
Homo sapiens [9] = experiment: Toxicity in healthy human in 8 hrs fasted healthy human assessed as changes in ECG at 200 mg, po administered as single dose of suspension; format: organism-based; settings: in vivo
[10] = Cmax in healthy human plasma at 200 mg, po once daily for 3 days measured after 1 day; format: ADME, organism-based; parameters: dose 200 mg, route oral
Homo sapiens [11] = experiment: Ratio of Cmax in 8 hrs fasted healthy human plasma at 200 mg, po administered as single dose of two-100 mg capsules to cmax in 8 hrs fasted healthy human plasma assessed as EDP-420 9-keto level at 200 mg, po administered as single dose of two-100 mg capsules; format: ADME, organism-based; settings: in vivo
[12] = Cmax in 8 hrs fasted healthy human plasma at 200 mg, po administered as single dose of two-100 mg capsules; format: ADME, organism-based; parameters: dose 200 mg, route oral
[13] = Tmax in high-fat fed healthy human plasma at 200 mg, po administered as single dose of two-100 mg capsules; format: ADME, organism-based
Homo sapiens [14] = experiment: Toxicity in healthy human assessed as occurrence of mortality at 200 mg, po once daily for 3 days; format: organism-based; settings: in vivo, 72 h
Homo sapiens [15] = experiment: Toxicity in healthy human assessed as incidence of severe adverse events at 200 mg, po once daily for 3 days; format: organism-based; settings: in vivo, 72 h
Homo sapiens [16] = experiment: Ratio of AUC (0 to 24 hrs) in healthy human plasma at 200 mg, po once daily for 3 days measured after 3 days to AUC (0 to 24 hrs) in healthy human plasma at 200 mg, po once daily for 3 days measured after 1 day; format: ADME, organism-based; settings: in vivo
[17] = Drug concentration in Alveolar macrophage of healthy human at 400 mg, po administered as single dose after 24 hrs; format: ADME, organism-based; settings: alveolar macrophages, read-out: Drug uptake
[18] = Tmax in 8 hrs fasted healthy human plasma at 200 mg, po administered as single dose of two-100 mg capsules; format: ADME, organism-based
[19] = Cmax in 8 hrs fasted healthy human plasma at 200 mg, po administered as single dose of suspension; format: ADME, organism-based; parameters: dose 200 mg, route oral
Homo sapiens [20] = experiment: Toxicity in healthy human in 8 hrs fasted healthy human assessed as changes in physical examinations at 200 mg, po administered as single dose of two-100 mg capsules; format: organism-based; settings: in vivo
[21] = AUC (0 to last) in 8 hrs fasted healthy human plasma at 200 mg, po administered as single dose of two-100 mg capsules; format: ADME, organism-based; parameters: dose 200 mg, route oral, time 0 - last
Homo sapiens [22] = experiment: Toxicity in high-fat fed healthy human assessed as incidence of severe adverse events at 200 mg, po administered as single dose of two-100 mg capsules; format: organism-based; settings: in vivo
Homo sapiens [23] = experiment: Ratio of Cmax in high-fat fed healthy human plasma at 200 mg, po administered as single dose of two-100 mg capsules to cmax in high-fat fed healthy human plasma assessed as EDP-420 9-keto level at 200 mg, po administered as single dose of two-100 mg capsules; format: ADME, organism-based; settings: in vivo
[24] = Ratio of AUC (0 to 24 hrs) in Alveolar macrophage of healthy human to AUC (0 to 24 hrs) in healthy human plasma at 400 mg, po administered as single dose; format: ADME, organism-based; settings: alveolar macrophages / plasma
[25] = AUC (0 to infinity) in 8 hrs fasted healthy human plasma at 200 mg, po administered as single dose of two-100 mg capsules; format: ADME, organism-based; parameters: dose 200 mg, route oral, time infinity
[26] = Tmax in healthy human plasma at 200 mg, po once daily for 3 days measured after 3 days; format: ADME, organism-based
[27] = Ratio of drug concentration in Epithelial lining fluid of healthy human at 400 mg, po administered as single dose after 24 hrs to drug concentration in Epithelial lining fluid of healthy human at 500 mg, po administered as single dose after 24 hrs; format: ADME, organism-based; settings: in vivo

Structure (SMILES): CC[C@H]1OC(=O)[C@H](C)C(=O)[C@H](C)[C@@H](O[C@@H]2O[C@H](C)C[C@H](N(C)C)[C@H]2O)[C@@]2(C)C[C@@H](C)/C(=N\C(C)=O)[C@H](C)[C@@H](OC/C(=N\OCc3ccc(-n4cccn4)nc3)CO2)[C@]1(C)O [MODITHROMYCIN]
- Ratio [1]: > 2
- Activity (Homo sapiens [2]): Non-toxic
- Ratio (Homo sapiens [3]): 0.093
- AUC(0-t) at 24 h [4]: 6200 ng·h/mL
- AUC(0-inf) [5]: 8350 ng·h/mL
- Ratio (Homo sapiens [6]): 0.065
- Ratio (Homo sapiens [7]): 0.101
- Cmax [8]: 559 ng/mL
- Activity (Homo sapiens [9]): Non-toxic
- Cmax [10]: 432 ng/mL
- Ratio (Homo sapiens [11]): 0.058
- Cmax [12]: 405 ng/mL
- Tmax [13]: 4 h
- Activity (Homo sapiens [14]): Non-toxic
- Activity (Homo sapiens [15]): Non-toxic
- Ratio AUC (Homo sapiens [16]): 1.4
- concentration at 24 h [17]: 68000 ng/mL
- Tmax [18]: 3.5 h
- Cmax [19]: 381 ng/mL
- Activity (Homo sapiens [20]): Non-toxic
- AUC(0-t) [21]: 8940 ng·h/mL
- Activity (Homo sapiens [22]): Non-toxic
- Ratio (Homo sapiens [23]): 0.092
- Kp [24]: 245
- AUC(0-inf) [25]: 9030 ng·h/mL
- Tmax [26]: 3.25 h
- Ratio [27]: > 72
